Test [1] has as its target Mitogen-activated protein kinase 9 (Homo sapiens, UniProt P45984).
Test [2] has as its target Calcium/calmodulin-dependent protein kinase kinase 2 (Homo sapiens, UniProt Q96RR4).
Test [3] deals with Tyrosine-protein kinase CSK (Homo sapiens, UniProt P41240).
The target of test [4] is Tyrosine-protein kinase SYK (Homo sapiens, UniProt P43405).
Test [5] deals with T1, ATP-dependent 6-phosphofructokinase, platelet type (Homo sapiens, UniProt Q01813).
T1 sequence (Q01813 whole entry): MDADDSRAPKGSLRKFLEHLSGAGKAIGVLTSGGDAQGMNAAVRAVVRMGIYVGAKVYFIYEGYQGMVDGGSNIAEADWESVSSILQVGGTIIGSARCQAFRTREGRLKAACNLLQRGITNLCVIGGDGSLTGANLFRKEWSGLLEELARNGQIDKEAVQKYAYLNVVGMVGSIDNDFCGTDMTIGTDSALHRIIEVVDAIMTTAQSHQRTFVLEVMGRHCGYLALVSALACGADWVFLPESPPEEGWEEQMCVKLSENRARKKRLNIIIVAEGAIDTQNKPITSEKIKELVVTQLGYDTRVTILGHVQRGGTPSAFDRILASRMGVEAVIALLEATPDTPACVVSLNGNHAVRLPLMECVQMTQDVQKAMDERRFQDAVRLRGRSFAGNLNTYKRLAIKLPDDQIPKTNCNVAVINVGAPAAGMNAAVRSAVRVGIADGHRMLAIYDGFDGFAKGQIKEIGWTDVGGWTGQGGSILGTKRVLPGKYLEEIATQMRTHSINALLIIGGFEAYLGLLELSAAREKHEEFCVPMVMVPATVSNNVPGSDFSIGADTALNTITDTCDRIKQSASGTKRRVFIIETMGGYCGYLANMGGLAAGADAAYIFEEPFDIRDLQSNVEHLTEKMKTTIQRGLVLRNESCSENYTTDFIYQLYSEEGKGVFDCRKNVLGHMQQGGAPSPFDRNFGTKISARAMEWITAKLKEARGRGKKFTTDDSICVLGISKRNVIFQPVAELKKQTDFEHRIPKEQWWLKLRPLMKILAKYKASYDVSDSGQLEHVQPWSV

Test [6] concerns the target Protein kinase C theta type (Homo sapiens, UniProt Q04759).
Test [7] has as its target T2, Uncharacterized protein FLJ45252 (Homo sapiens, UniProt Q6ZSR9).
T2 sequence (Q6ZSR9 whole entry): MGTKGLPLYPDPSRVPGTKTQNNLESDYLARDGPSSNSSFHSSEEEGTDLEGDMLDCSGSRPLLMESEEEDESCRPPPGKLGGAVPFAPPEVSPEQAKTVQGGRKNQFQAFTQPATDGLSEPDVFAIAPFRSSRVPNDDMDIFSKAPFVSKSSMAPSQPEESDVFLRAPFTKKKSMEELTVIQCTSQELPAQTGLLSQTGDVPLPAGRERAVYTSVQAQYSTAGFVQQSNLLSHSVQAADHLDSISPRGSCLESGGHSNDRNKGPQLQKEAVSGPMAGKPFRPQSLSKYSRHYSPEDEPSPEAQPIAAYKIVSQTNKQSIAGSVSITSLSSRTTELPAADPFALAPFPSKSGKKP
The following applies: read-out: Kd apparent; k-562, colo 205, sk-n-be(2) and mv-4-11.

The target in test [8] is T3, Delta(24)-sterol reductase (Homo sapiens, UniProt Q15392).
T3 sequence (Q15392 whole entry): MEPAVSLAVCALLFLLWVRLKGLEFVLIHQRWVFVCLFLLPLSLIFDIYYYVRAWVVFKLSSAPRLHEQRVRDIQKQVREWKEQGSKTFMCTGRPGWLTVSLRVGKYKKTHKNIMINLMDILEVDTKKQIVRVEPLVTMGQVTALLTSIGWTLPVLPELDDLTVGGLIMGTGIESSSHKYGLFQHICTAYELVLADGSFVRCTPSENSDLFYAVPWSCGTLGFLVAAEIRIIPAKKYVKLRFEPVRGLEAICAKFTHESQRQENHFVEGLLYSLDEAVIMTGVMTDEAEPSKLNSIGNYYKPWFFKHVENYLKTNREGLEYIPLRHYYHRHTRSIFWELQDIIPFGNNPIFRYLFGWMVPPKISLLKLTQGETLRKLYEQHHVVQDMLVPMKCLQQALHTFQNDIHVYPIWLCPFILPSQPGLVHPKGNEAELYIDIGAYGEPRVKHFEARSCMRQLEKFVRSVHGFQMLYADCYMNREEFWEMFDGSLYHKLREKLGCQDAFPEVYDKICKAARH

Test [9] addresses Wee1-like protein kinase (Homo sapiens, UniProt P30291).
Test [10] deals with T4, Adenine phosphoribosyltransferase (Homo sapiens, UniProt P07741).
T4 sequence (P07741 whole entry): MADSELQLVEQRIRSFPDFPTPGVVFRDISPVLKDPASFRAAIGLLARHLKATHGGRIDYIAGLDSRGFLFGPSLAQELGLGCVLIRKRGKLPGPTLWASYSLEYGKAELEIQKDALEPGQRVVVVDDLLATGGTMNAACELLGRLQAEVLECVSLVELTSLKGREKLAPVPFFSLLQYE

The target in test [11] is Tyrosine-protein kinase ABL2 (Homo sapiens, UniProt P42684).
Sequence of Tyrosine-protein kinase ABL2 (P42684 whole entry): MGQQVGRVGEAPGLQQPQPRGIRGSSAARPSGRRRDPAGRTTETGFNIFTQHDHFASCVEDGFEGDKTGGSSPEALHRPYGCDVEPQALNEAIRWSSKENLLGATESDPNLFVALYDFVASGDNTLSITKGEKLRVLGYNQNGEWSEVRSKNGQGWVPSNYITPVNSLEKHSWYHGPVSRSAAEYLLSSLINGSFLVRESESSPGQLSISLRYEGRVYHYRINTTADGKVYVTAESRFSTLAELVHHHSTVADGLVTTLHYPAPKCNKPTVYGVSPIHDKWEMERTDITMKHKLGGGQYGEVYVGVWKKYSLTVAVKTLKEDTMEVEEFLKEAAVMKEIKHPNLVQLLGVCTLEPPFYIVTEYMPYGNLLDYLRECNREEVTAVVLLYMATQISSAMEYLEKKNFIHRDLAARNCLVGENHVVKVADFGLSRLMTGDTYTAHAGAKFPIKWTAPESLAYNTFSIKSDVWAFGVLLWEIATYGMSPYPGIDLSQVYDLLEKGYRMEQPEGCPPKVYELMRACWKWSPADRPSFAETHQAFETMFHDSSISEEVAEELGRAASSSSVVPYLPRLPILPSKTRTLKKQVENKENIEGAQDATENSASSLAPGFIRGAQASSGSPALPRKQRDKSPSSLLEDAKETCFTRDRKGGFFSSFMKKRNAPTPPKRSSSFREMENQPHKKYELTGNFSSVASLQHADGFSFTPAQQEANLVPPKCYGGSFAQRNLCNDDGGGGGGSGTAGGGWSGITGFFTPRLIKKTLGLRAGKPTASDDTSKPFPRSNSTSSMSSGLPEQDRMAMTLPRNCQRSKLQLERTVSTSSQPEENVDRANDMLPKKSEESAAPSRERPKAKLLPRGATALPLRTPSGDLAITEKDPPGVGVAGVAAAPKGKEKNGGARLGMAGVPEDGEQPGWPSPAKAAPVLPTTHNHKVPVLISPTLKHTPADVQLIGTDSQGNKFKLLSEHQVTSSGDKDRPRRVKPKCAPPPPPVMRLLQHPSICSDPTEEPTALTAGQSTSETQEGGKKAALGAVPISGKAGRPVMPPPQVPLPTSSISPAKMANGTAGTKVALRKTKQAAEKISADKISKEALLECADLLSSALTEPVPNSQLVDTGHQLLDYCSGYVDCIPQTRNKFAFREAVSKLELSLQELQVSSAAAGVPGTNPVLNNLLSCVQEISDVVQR
Test [12] has as its target T5, Succinate--CoA ligase [ADP-forming] subunit beta, mitochondrial (Homo sapiens, UniProt Q9P2R7).
T5 sequence (Q9P2R7 whole entry): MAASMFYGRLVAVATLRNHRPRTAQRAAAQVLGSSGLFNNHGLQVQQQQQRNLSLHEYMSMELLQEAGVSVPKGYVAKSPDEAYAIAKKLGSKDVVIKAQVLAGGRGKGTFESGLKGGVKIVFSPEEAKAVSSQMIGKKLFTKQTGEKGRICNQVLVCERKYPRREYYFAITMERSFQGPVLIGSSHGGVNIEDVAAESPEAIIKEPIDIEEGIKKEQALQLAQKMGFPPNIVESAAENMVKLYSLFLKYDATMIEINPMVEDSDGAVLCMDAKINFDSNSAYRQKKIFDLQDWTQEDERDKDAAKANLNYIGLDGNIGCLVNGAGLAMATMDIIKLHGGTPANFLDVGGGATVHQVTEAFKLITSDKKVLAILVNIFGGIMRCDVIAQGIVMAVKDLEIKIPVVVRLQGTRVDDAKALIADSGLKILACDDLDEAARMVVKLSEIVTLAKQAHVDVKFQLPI

Here are results for seven molecules from ChEMBL document CHEMBL3991601, “The target landscape of clinical kinase drugs” (Science, 2017).

Active and inactive are the calls of the source. Cut-off read from the data, not from the text of the source, for most assays here: actives have a measured Kd and inactives only a lower limit. Some results are limits rather than exact numbers.
Note: in the data inactive means no Kd found up to 30 µM.

Sequence of Wee1-like protein kinase (P30291 whole entry): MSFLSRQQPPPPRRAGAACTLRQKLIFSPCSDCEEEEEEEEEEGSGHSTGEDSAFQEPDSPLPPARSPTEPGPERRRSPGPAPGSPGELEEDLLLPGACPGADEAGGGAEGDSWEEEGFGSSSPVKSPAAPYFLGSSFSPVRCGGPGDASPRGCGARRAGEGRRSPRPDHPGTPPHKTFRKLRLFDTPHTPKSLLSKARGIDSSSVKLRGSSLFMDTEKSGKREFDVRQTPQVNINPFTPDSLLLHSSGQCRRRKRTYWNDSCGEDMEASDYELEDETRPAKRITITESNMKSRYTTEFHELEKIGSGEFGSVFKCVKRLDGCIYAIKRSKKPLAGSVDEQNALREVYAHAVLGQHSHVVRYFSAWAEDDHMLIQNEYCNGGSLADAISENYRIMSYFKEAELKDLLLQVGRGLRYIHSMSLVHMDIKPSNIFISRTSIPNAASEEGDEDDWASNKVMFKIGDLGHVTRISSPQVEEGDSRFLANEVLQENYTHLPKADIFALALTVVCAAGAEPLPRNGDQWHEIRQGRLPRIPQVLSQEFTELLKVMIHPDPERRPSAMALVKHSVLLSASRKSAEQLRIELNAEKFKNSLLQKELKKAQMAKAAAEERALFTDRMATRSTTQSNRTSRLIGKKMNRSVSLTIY
Sequence of Mitogen-activated protein kinase 9 (P45984 whole entry): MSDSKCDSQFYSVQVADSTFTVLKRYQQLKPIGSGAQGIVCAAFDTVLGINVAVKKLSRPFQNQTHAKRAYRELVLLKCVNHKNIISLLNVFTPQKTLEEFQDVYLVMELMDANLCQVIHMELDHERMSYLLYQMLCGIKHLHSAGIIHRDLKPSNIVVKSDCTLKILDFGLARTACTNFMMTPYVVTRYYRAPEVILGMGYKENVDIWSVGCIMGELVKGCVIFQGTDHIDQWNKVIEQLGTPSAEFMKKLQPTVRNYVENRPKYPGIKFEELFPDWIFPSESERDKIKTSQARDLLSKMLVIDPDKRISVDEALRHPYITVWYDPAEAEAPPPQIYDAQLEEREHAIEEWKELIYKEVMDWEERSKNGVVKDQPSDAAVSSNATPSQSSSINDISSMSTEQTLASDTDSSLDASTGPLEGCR
Sequence of Tyrosine-protein kinase CSK (P41240 whole entry): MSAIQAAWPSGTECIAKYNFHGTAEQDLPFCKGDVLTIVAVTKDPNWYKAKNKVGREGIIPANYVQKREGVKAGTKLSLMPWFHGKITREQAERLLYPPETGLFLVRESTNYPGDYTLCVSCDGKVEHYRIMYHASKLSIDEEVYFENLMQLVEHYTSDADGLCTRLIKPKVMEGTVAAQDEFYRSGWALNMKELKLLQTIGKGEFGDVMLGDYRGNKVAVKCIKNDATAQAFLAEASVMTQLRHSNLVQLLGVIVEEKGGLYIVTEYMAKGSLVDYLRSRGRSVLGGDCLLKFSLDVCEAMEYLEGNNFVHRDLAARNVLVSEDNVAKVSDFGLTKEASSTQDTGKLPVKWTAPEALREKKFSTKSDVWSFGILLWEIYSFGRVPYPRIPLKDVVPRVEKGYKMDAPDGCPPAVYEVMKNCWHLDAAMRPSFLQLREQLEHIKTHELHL
Sequence of Protein kinase C theta type (Q04759 whole entry): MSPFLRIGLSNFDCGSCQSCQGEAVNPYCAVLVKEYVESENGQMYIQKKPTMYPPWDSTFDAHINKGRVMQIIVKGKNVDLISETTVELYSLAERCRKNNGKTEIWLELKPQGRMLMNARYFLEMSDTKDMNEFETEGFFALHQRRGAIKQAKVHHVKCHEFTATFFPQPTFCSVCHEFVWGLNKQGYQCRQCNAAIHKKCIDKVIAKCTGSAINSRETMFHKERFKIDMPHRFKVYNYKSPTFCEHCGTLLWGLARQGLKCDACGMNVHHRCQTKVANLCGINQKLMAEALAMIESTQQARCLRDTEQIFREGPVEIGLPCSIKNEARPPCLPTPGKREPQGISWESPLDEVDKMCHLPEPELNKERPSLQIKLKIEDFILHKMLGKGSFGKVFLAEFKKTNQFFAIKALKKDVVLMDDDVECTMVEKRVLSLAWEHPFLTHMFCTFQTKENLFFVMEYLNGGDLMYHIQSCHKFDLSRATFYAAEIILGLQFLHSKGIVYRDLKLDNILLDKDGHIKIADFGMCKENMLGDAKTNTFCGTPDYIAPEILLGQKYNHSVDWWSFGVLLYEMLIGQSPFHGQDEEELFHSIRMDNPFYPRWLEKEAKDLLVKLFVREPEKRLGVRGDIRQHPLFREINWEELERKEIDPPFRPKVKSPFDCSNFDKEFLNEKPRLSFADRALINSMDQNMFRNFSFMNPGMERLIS
Sequence of Calcium/calmodulin-dependent protein kinase kinase 2 (Q96RR4 whole entry): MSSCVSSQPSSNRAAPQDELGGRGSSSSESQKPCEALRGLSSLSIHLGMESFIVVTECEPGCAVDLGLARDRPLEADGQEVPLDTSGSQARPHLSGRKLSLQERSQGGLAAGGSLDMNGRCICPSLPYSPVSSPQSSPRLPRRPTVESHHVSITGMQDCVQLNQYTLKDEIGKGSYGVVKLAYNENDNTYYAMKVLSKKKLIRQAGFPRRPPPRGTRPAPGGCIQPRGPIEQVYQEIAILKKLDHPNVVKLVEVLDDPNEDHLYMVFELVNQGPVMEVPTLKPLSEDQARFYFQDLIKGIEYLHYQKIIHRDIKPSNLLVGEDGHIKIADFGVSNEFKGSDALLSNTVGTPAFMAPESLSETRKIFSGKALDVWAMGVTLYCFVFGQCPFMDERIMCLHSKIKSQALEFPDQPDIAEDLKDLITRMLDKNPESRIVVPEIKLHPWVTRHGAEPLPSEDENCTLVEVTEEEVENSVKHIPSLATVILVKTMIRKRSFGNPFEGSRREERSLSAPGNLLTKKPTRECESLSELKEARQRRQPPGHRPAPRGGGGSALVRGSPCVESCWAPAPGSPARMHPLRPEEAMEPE

In the case of `Cc1cc(C(=O)NOCCO)c(Nc2ccc(I)cc2F)n(C)c1=O` [AZD-8330], the Kd in [1], in test [2], in test [3], in test [4], in [5] and in test [6] was > 30 µM (inactive) throughout. The Kd in test [7], in test [8], in [9], in test [10] and in test [11] was > 30 µM (inactive) in each case.
As to `COc1c(OCCCN2CCOCC2)ccc2c1N=C(NC(=O)c1cnc(N)nc1)N1CCN=C21` [COPANLISIB], the Kd in test [1], in [2], in test [12], in [3], in test [4] and in [5] was > 30 µM (inactive) throughout. The Kd in test [6], in [8], in test [9], in test [10] and in [11] was > 30 µM (inactive) throughout.
As to `O=C(Nc1nc2cccc(-c3ccc(CN4CCS(=O)(=O)CC4)cc3)n2n1)C1CC1` [FILGOTINIB], the Kd in test [1] was > 30 µM (inactive); in test [2] it was 3.63 µM (active); in test [12], > 30 µM (inactive); in test [3], > 30 µM (inactive); in test [4] it was > 30 µM (inactive); in [5], > 30 µM (inactive). Also, the Kd in test [6], in test [8], in test [9], in [10] and in [11] was > 30 µM (inactive) in each case.
`COc1ccc(S(=O)(=O)N(C(C)=O)c2ccccc2/C=C/c2cc[n+]([O-])cc2)cc1` [HMN-214]: the Kd in [1], in test [2], in [3], in test [4], in test [5] and in [6] was > 30 µM (inactive) throughout. In addition, the Kd in test [7], in [8], in [9], in test [10] and in [11] was > 30 µM (inactive) in each case.
As for `CCOc1cc2ncc(C#N)c(Nc3ccc(F)c(Cl)c3)c2cc1NC(=O)/C=C/CN(C)C` [PELITINIB], the Kd in [1] was > 30 µM (inactive); in test [2] it was 1.39 µM (active); in test [12], > 30 µM (inactive); in test [3], > 30 µM (inactive); in [4] it was > 30 µM (inactive); in test [5], > 30 µM (inactive). For the same molecule, the Kd in [6], in [7], in test [8] and in test [10] was > 30 µM (inactive) each time.
In the case of `Cc1cnc(NC(=O)Nc2cc(Br)c(C)cc2OC[C@@H]2CNCCO2)cn1` [RABUSERTIB], the Kd in test [1], in [2], in test [3], in [4], in [5] and in test [6] was > 30 µM (inactive) each time. Further, the Kd in test [7], in test [8], in [9], in test [10] and in test [11] was > 30 µM (inactive) each time.
On to `CCS(=O)(=O)c1cccc(-c2cc(C(=O)NC3CCN(C)CC3)c(C)c3[nH]c4ncc(C)cc4c23)c1` [TAK-901], for which the Kd in test [1] was > 30 µM (inactive); in test [2] it was > 30 µM (inactive); in [12] it was > 30 µM (inactive); in [3], > 30 µM (inactive); in test [4], 4.66 µM (active); in [5], > 30 µM (inactive). Also, the Kd in test [6] was > 30 µM (inactive); in test [8] it was > 30 µM (inactive); in test [9], > 30 µM (inactive); in [10], > 30 µM (inactive); in test [11], 0.422 µM (active).
